{"source": "patent US11446282B2", "about": "“Methods of treating mixed dyslipidemia and hypertriglycertdemia” (Kowa Company, Ltd., priority 2017, dated 2022)", "test_system": "dyslipidemic patients with renal impairment", "assay": "Example 3 phase III 52-week trial: cholesterol in lipoprotein subclasses by HPLC", "format": "in vivo, human", "conditions": "for Small LDL-C Week 52 (LOCF) / VLDL-C % Change from baseline at Week 52 (LOCF) / VLDL-C Week 52 (LOCF) / Very large HDL-C % Change from baseline at Week 52 (LOCF) / Very large HDL-C Week 52 (LOCF) / Very small HDL-C % Change from baseline at Week 52 (LOCF) / Very small HDL-C Week 52 (LOCF) / Very small LDL-C % Change from baseline at Week 52 (LOCF) / Very small LDL-C Week 52 (LOCF) / CM-C % Change from baseline at Week 52 (LOCF) / CM-C Week 52 (LOCF) / Large HDL-C % Change from baseline at Week 52 (LOCF) / Large HDL-C Week 52 (LOCF) / Large LDL-C % Change from baseline at Week 52 (LOCF) / Large LDL-C Week 52 (LOCF) / Medium HDL-C % Change from baseline at Week 52 (LOCF) / Medium HDL-C Week 52 (LOCF) / Medium LDL-C % Change from baseline at Week 52 (LOCF) / Medium LDL-C Week 52 (LOCF) / Small HDL-C % Change from baseline at Week 52 (LOCF) / Small HDL-C Week 52 (LOCF) / Small LDL-C % Change from baseline at Week 52 (LOCF): 0.2 (0.4) mg/day", "experimental": "This was a multicenter, single-arm, open-label, phase III trial. The inclusion criteria were as follows: (1) patients with dyslipidemia aged >20 years at the time of informed consent; (2) men and postmenopausal women; (3) fasting serum TG≥1.70 mmol/L (150 mg/dL) at two consecutive measurements during screening; and (4) patients who followed dietary and physical exercise guidance for >12 weeks before enrollment.\nThe major exclusion criteria were as follows: (1) patients with fasting serum TG≥5.65 mmol/L (500 mg/dL) during screening; (2) patients with poorly controlled diabetes mellitus (hemoglobin A1c [HbA1c]≥10.5%); (3) patients with concurrent poorly controlled thyroid disease; (4) men with serum creatinine ≥2.5 mg/dL and women with serum creatinine ≥2.0 mg/dL during screening who were already on statin therapy; (5) patients with eGFR<45 mL/min/1.73 m^2 during screening who were already on statin therapy; (6) patients with CK>5ULN (270 IU/L for men, 150 IU/L for women) during screening who were already on statin therapy; (7) patients with serious liver disease (cirrhosis Child-Pugh Class B or higher); (8) patients with gallstones or serious biliary tract disease; (9) patients who had suffered an acute myocardial infarction or stroke within three months before informed consent; and (10) patients with New York Heart Association class III or IV heart failure.\nDuring the screening period (8 weeks prior to treatment initiation), tests were performed twice to determine patient eligibility. Thereafter, eligible patients orally received pemafibrate 0.2 mg/day (twice daily) for 52 weeks. From week 12 of the treatment period onwards, the investigators were instructed that the dose could be increased from 0.2 mg/day to 0.4 mg/day (twice daily) if there was an inadequate response to the initial dose based on fasting serum TG levels ≥1.70 mmol/L (150 mg/dL). Fasting blood and urine samples were collected at each visit. Blood and urine sample in patients with hemodialysis were collected just before dialysis. LDL-C levels were measured using the direct method. […]\nThe primary efficacy endpoint was the percent change in fasting serum TG from baseline to the last evaluation point. The primary safety endpoints were the incidence of an AE or ADR occurring after drug administration during the study. Secondary efficacy endpoints included percent changes in lipid variables and changes in inflammation variables at week 52 [using the last-observation-carried-forward (LOCF)]. Secondary safety endpoints included changes in the levels of aspartate aminotransferase (AST), ALT, -GT, ALP, serum creatinine, eGFR, and CK at week 52. Each baseline value was defined as (1) the mean of the corresponding values in the first and second tests at the screening examination and at week 0 of the treatment period for fasting serum TG, HDL-C, total cholesterol (TC), LDL-C, and non-HDL-C; and (2) the value at week 0 of the treatment period for the other secondary variables.\nThe numbers of patients with AEs and ADRs and the incidences of AEs and ADRs were calculated in the analysis of primary safety endpoints. For the secondary efficacy endpoints, one-sample t-tests or Wilcoxon signed-rank tests [for high-sensitivity C-reactive protein (hsCRP) and IL-1] were performed. The secondary safety endpoints were analyzed with Wilcoxon signed-rank tests. A two-sided significance level of 0.05 was used. SAS v. 9.3 (SAS Institute Inc., Cary, N.C., USA) was used for these analyses. Where indicated, the data are expressed as means±standard deviation (SD).", "key": {"[1]": {"conditions": "lowest eGFR group compared with other groups"}}}
{"compound": "CC[C@@H](Oc1cccc(CN(CCCOc2ccc(OC)cc2)c2nc3ccccc3o2)c1)C(=O)O", "note": "[Pemafibrate, (2R)-2-[3-({1,3-benzoxazol-2-yl[3-(4-methoxyphenoxy)propyl]amino}methyl)phenoxy]butanoic acid]", "values": [{"measurement": "Small LDL-C Week 52 (LOCF)", "setting": "eGFR G2 (≥60 and <90)", "value": 0.522, "unit": "mmol/L"}, {"measurement": "VLDL-C % Change from baseline at Week 52 (LOCF)", "setting": "eGFR G2 (≥60 and <90)", "value": "−25.3", "unit": "%"}, {"measurement": "VLDL-C Week 52 (LOCF)", "setting": "eGFR G2 (≥60 and <90)", "value": 0.834, "unit": "mmol/L"}, {"measurement": "Very large HDL-C % Change from baseline at Week 52 (LOCF)", "setting": "eGFR G2 (≥60 and <90)", "value": 4.1, "unit": "%"}, {"measurement": "Very large HDL-C Week 52 (LOCF)", "setting": "eGFR G2 (≥60 and <90)", "value": 0.048, "unit": "mmol/L"}, {"measurement": "Very small HDL-C % Change from baseline at Week 52 (LOCF)", "setting": "eGFR G2 (≥60 and <90)", "value": 30.9, "unit": "%"}, {"measurement": "Very small HDL-C Week 52 (LOCF)", "setting": "eGFR G2 (≥60 and <90)", "value": 0.181, "unit": "mmol/L"}, {"measurement": "Very small LDL-C % Change from baseline at Week 52 (LOCF)", "setting": "eGFR G2 (≥60 and <90)", "value": "−9.7", "unit": "%"}, {"measurement": "Very small LDL-C Week 52 (LOCF)", "setting": "eGFR G2 (≥60 and <90)", "value": 0.211, "unit": "mmol/L"}, {"measurement": "CM-C % Change from baseline at Week 52 (LOCF)", "setting": "eGFR G3a-G3b (≥30 and <60)", "value": "−67.7", "unit": "%"}, {"measurement": "CM-C Week 52 (LOCF)", "setting": "eGFR G3a-G3b (≥30 and <60)", "value": 0.038, "unit": "mmol/L"}, {"measurement": "Large HDL-C % Change from baseline at Week 52 (LOCF)", "setting": "eGFR G3a-G3b (≥30 and <60)", "value": "−4.9", "unit": "%"}, {"measurement": "Large HDL-C Week 52 (LOCF)", "setting": "eGFR G3a-G3b (≥30 and <60)", "value": 0.124, "unit": "mmol/L"}, {"measurement": "Large LDL-C % Change from baseline at Week 52 (LOCF)", "setting": "eGFR G3a-G3b (≥30 and <60)", "value": 59.1, "unit": "%"}, {"measurement": "Large LDL-C Week 52 (LOCF)", "setting": "eGFR G3a-G3b (≥30 and <60)", "value": 0.720, "unit": "mmol/L"}, {"measurement": "Medium HDL-C % Change from baseline at Week 52 (LOCF)", "setting": "eGFR G3a-G3b (≥30 and <60)", "value": 20.6, "unit": "%"}, {"measurement": "Medium HDL-C Week 52 (LOCF)", "setting": "eGFR G3a-G3b (≥30 and <60)", "value": 0.447, "unit": "mmol/L"}, {"measurement": "Medium LDL-C % Change from baseline at Week 52 (LOCF)", "setting": "eGFR G3a-G3b (≥30 and <60)", "value": 18.9, "unit": "%"}, {"measurement": "Medium LDL-C Week 52 (LOCF)", "setting": "eGFR G3a-G3b (≥30 and <60)", "value": 1.127, "unit": "mmol/L"}, {"measurement": "Small HDL-C % Change from baseline at Week 52 (LOCF)", "setting": "eGFR G3a-G3b (≥30 and <60)", "value": 24.6, "unit": "%"}, {"measurement": "Small HDL-C Week 52 (LOCF)", "setting": "eGFR G3a-G3b (≥30 and <60)", "value": 0.467, "unit": "mmol/L"}, {"measurement": "Small LDL-C % Change from baseline at Week 52 (LOCF)", "setting": "eGFR G3a-G3b (≥30 and <60)", "value": "−18.9", "unit": "%"}, {"measurement": "Small LDL-C Week 52 (LOCF)", "setting": "eGFR G3a-G3b (≥30 and <60)", "value": 0.501, "unit": "mmol/L"}, {"measurement": "VLDL-C % Change from baseline at Week 52 (LOCF)", "setting": "eGFR G3a-G3b (≥30 and <60)", "value": "−22.9", "unit": "%"}, {"measurement": "VLDL-C Week 52 (LOCF)", "setting": "eGFR G3a-G3b (≥30 and <60)", "value": 0.892, "unit": "mmol/L"}, {"measurement": "Very large HDL-C % Change from baseline at Week 52 (LOCF)", "setting": "eGFR G3a-G3b (≥30 and <60)", "value": 5.9, "unit": "%"}, {"measurement": "Very large HDL-C Week 52 (LOCF)", "setting": "eGFR G3a-G3b (≥30 and <60)", "value": 0.051, "unit": "mmol/L"}, {"measurement": "Very small HDL-C % Change from baseline at Week 52 (LOCF)", "setting": "eGFR G3a-G3b (≥30 and <60)", "value": 19.7, "unit": "%"}, {"measurement": "Very small HDL-C Week 52 (LOCF)", "setting": "eGFR G3a-G3b (≥30 and <60)", "value": 0.180, "unit": "mmol/L"}, {"measurement": "Very small LDL-C % Change from baseline at Week 52 (LOCF)", "setting": "eGFR G3a-G3b (≥30 and <60)", "value": "−15.8", "unit": "%"}, {"measurement": "Very small LDL-C Week 52 (LOCF)", "setting": "eGFR G3a-G3b (≥30 and <60)", "value": 0.207, "unit": "mmol/L"}, {"measurement": "CM-C % Change from baseline at Week 52 (LOCF)", "setting": "eGFR G4-G5 (<30)", "value": "−79.4", "unit": "%"}, {"measurement": "CM-C Week 52 (LOCF)", "setting": "eGFR G4-G5 (<30)", "value": 0.039, "unit": "mmol/L"}, {"measurement": "Large HDL-C % Change from baseline at Week 52 (LOCF)", "setting": "eGFR G4-G5 (<30)", "value": 5.2, "unit": "%"}, {"measurement": "Large HDL-C Week 52 (LOCF)", "setting": "eGFR G4-G5 (<30)", "value": 0.096, "unit": "mmol/L"}, {"measurement": "Large LDL-C % Change from baseline at Week 52 (LOCF)", "setting": "eGFR G4-G5 (<30)", "value": 39.9, "unit": "%"}, {"measurement": "Large LDL-C Week 52 (LOCF)", "setting": "eGFR G4-G5 (<30)", "value": 0.689, "unit": "mmol/L"}, {"measurement": "Medium HDL-C % Change from baseline at Week 52 (LOCF)", "setting": "eGFR G4-G5 (<30)", "value": 53.2, "unit": "%"}, {"measurement": "Medium HDL-C Week 52 (LOCF)", "setting": "eGFR G4-G5 (<30)", "value": 0.336, "unit": "mmol/L"}, {"measurement": "Medium LDL-C % Change from baseline at Week 52 (LOCF)", "setting": "eGFR G4-G5 (<30)", "value": "−2.8", "unit": "%"}, {"measurement": "Medium LDL-C Week 52 (LOCF)", "setting": "eGFR G4-G5 (<30)", "value": 0.920, "unit": "mmol/L"}, {"measurement": "Small HDL-C % Change from baseline at Week 52 (LOCF)", "setting": "eGFR G4-G5 (<30)", "value": 39.1, "unit": "%"}, {"measurement": "Small HDL-C Week 52 (LOCF)", "setting": "eGFR G4-G5 (<30)", "value": 0.395, "unit": "mmol/L"}, {"measurement": "Small LDL-C % Change from baseline at Week 52 (LOCF)", "setting": "eGFR G4-G5 (<30)", "value": "−38.6", "unit": "%"}, {"measurement": "Small LDL-C Week 52 (LOCF)", "setting": "eGFR G4-G5 (<30)", "value": 0.381, "unit": "mmol/L"}, {"measurement": "VLDL-C % Change from baseline at Week 52 (LOCF)", "setting": "eGFR G4-G5 (<30)", "value": "−28.7", "unit": "%"}, {"measurement": "VLDL-C Week 52 (LOCF)", "setting": "eGFR G4-G5 (<30)", "value": 1.076, "unit": "mmol/L"}, {"measurement": "Very large HDL-C % Change from baseline at Week 52 (LOCF)", "setting": "eGFR G4-G5 (<30)", "value": 17.1, "unit": "%"}, {"measurement": "Very large HDL-C Week 52 (LOCF)", "setting": "eGFR G4-G5 (<30)", "value": 0.044, "unit": "mmol/L"}, {"measurement": "Very small HDL-C % Change from baseline at Week 52 (LOCF)", "setting": "eGFR G4-G5 (<30)", "value": 23.5, "unit": "%"}, {"measurement": "Very small HDL-C Week 52 (LOCF)", "setting": "eGFR G4-G5 (<30)", "value": 0.155, "unit": "mmol/L"}, {"measurement": "Very small LDL-C % Change from baseline at Week 52 (LOCF)", "setting": "eGFR G4-G5 (<30)", "value": "−33.4", "unit": "%"}, {"measurement": "Very small LDL-C Week 52 (LOCF)", "setting": "eGFR G4-G5 (<30)", "value": 0.158, "unit": "mmol/L"}, {"measurement": "high-density lipoprotein cholesterol change (observation)", "setting": "lowest eGFR group", "value": "increase"}, {"measurement": "VLDL-C change (observation)", "setting": "[1]", "value": "greatest reduction"}, {"measurement": "chylomicron (CM-C) change (observation)", "setting": "[1]", "value": "greatest reduction"}, {"measurement": "small low-density lipoprotein cholesterol change (observation)", "setting": "[1]", "value": "greatest reduction"}]}
